According to the supplement of paper PMC11451515:

Test system: SEM cells
Assay: cell viability relative to DMSO control; higher = less cytotoxic
Settings: 48 h
Method in brief: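 Viability, reported as a per-plate percentage of DMSO wells with cell-free wells as background, came from CellTiter-Glo One luminescence. Reading took place after 48 h at 37°C. Before that, NOMO1 or SEM (500 cells/well) or P12-Ichikawa (1000 cells/well) leukemia cells, adapted for at least four passages in each medium, were seeded in 1536-well plates (5 μl) and pin-dosed with library compounds in DMSO, 47 μM to 0.79 nM over 11 threefold points.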

[1] = HPLM + 10% dialyzed FBS, 0.000781 µM
[2] = HPLM + 10% dialyzed FBS, 0.00234 µM
[3] = HPLM + 10% dialyzed FBS, 0.00702 µM
[4] = HPLM + 10% dialyzed FBS, 0.0211 µM
[5] = HPLM + 10% dialyzed FBS, 0.0632 µM
[6] = HPLM + 10% dialyzed FBS, 0.19 µM
[7] = HPLM + 10% dialyzed FBS, 0.569 µM
[8] = HPLM + 10% dialyzed FBS, 1.71 µM
[9] = HPLM + 10% dialyzed FBS, 5.12 µM
[10] = HPLM + 10% dialyzed FBS, 15.4 µM
[11] = HPLM + 10% dialyzed FBS, 46.1 µM
[12] = RPMI 5 mM glucose + 10% FBS, 0.000781 µM
[13] = RPMI 5 mM glucose + 10% FBS, 0.00234 µM
[14] = RPMI 5 mM glucose + 10% FBS, 0.00702 µM
[15] = RPMI 5 mM glucose + 10% FBS, 0.0211 µM
[16] = RPMI 5 mM glucose + 10% FBS, 0.0632 µM
[17] = RPMI 5 mM glucose + 10% FBS, 0.19 µM
[18] = RPMI 5 mM glucose + 10% FBS, 0.569 µM
[19] = RPMI 5 mM glucose + 10% FBS, 1.71 µM
[20] = RPMI 5 mM glucose + 10% FBS, 5.12 µM
[21] = RPMI 5 mM glucose + 10% FBS, 15.4 µM
[22] = RPMI 5 mM glucose + 10% FBS, 46.1 µM
[23] = RPMI 5 mM glucose + 10% dialyzed FBS, 0.000781 µM
[24] = RPMI 5 mM glucose + 10% dialyzed FBS, 0.00234 µM
[25] = RPMI 5 mM glucose + 10% dialyzed FBS, 0.00702 µM
[26] = RPMI 5 mM glucose + 10% dialyzed FBS, 0.0211 µM
[27] = RPMI 5 mM glucose + 10% dialyzed FBS, 0.0632 µM
[28] = RPMI 5 mM glucose + 10% dialyzed FBS, 0.19 µM
[29] = RPMI 5 mM glucose + 10% dialyzed FBS, 0.569 µM
[30] = RPMI 5 mM glucose + 10% dialyzed FBS, 1.71 µM
[31] = RPMI 5 mM glucose + 10% dialyzed FBS, 5.12 µM
[32] = RPMI 5 mM glucose + 10% dialyzed FBS, 15.4 µM
[33] = RPMI 5 mM glucose + 10% dialyzed FBS, 46.1 µM

SMILES	cell viability [1] [%]	cell viability [2] [%]	cell viability [3] [%]	cell viability [4] [%]	cell viability [5] [%]	cell viability [6] [%]	cell viability [7] [%]	cell viability [8] [%]	cell viability [9] [%]	cell viability [10] [%]	cell viability [11] [%]	cell viability [12] [%]	cell viability [13] [%]	cell viability [14] [%]	cell viability [15] [%]	cell viability [16] [%]	cell viability [17] [%]	cell viability [18] [%]	cell viability [19] [%]	cell viability [20] [%]	cell viability [21] [%]	cell viability [22] [%]	cell viability [23] [%]	cell viability [24] [%]	cell viability [25] [%]	cell viability [26] [%]	cell viability [27] [%]	cell viability [28] [%]	cell viability [29] [%]	cell viability [30] [%]	cell viability [31] [%]	cell viability [32] [%]	cell viability [33] [%]
Oc1ccc(-c2ccc(-c3cc(Nc4cccc(CNC5CC5)c4)[nH]n3)cc2)c(O)c1	82.4	100	93.7	93.7	70.7	103	91.1	46.7	25.7	9.24	6.68	97.8	106	95	101	72.6	89.7	110	94.5	45.7	27.4	4.97	89	96.9	100	87.9	84.1	99.6	100	84.8	60.2	22.8	9.47
CCOCC(O)COc1ccc(NC(=O)CC[S+](C)C)cc1 (stereo unspecified)	88.2	77.9	93.7	90.5	94.2	93.5	106	91.9	109	107	84.8	77.9	92.1	85.9	80.9	85.2	103	95.3	76.7	106	104	72.2	76.2	88.3	82.6	73.5	91.2	96.8	95.9	102	107	112	72.1
C[N]1N=CC=C1C/2=C(\C)N(C(=O)C(=C2)/C(=O)NCC3=NC=C(C=C3)[S+](C)([O-])=O)C4=CC=CC(=C4)C(F)(F)F	96	98.3	100	103	105	103	99.5	105	91.2	95.4	77.9	–	–	–	–	–	–	–	–	–	–	–	90	105	120	126	115	112	108	115	100	107	76
Cc1cnc(Nc2ccc(CN3CCOCC3)cc2)nc1Nc1cccc([S+](=O)([O-])NC(C)(C)C)c1	65	83.2	77.8	72.9	83.4	39.3	58	23.1	5.99	2.23	1.78	87.5	86.9	102	87.8	83.5	44	59.3	19.4	5.03	2.53	2.58	69.5	81.9	82.4	86	84.2	37.7	20.7	16.5	6.18	2.42	2.01
CCN(CC)CCCC(C)Nc1nc(C)cc(Nc2ccc3nc(C)cc(N)c3c2)n1 (stereo unspecified)	100	104	96.1	100	101	115	106	114	110	99.7	88.2	75.2	80.4	75.3	72.2	69.6	65.5	75.5	75.6	63.9	66.1	72	115	97.1	113	107	100	118	98.9	106	96.4	99.6	86.4
CN(C(Cc1ccc(O[S+](=O)([O-])c2cccc3cnccc23)cc1)C(=O)N1CCN(c2ccccc2)CC1)[S+](=O)([O-])c1cccc2cnccc12 (stereo unspecified)	102	110	112	105	110	108	114	95.3	94.6	74.2	39.1	120	110	108	109	108	99.7	108	96.9	95	46.2	22.9	110	120	100	119	114	120	114	110	90.3	67.1	34.5
CCOC(=O)[C@@H](N)CCC(=O)N[C@@H](CSCc1ccccc1)C(=O)N[C@@H](C(=O)OCC)c1ccccc1	84.5	105	99.8	103	104	111	109	116	119	97.1	102	–	–	–	–	–	–	–	–	–	–	–	–	–	–	–	–	–	–	–	–	–	–
O=C(NCc1ccccc1)c1csc(Nc2ccncn2)n1	84	77.5	97	106	108	75.7	74.4	50.4	17.2	4.02	1.49	97.4	82.9	99.5	96.3	108	55.3	67.8	29.2	9.72	2.63	1.31	89.6	69.1	94.8	103	108	81.5	85.9	43.7	17.4	2.76	1.35
